Assay results reported in the supplement of paper PMC10307832.

What was measured:
Assay in all cases: relative viability (nuclei count vs DMSO), 5 days (fraction); higher = more cells survive
[1] = compound: CN1CCN(c2ccc3nc(-c4c(N)c5c(F)cccc5[nH]c4=O)[nH]c3c2)CC1 [Dovitinib] + C[C@]1(O)C[C@@H](c2nc(-c3ccc4ccc(-c5ccccc5)nc4c3)c3c(N)nccn32)C1 [Linsitinib] (partner 1 µM)
Outline: (§1)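 The day after seeding in 1536-well plates, lung cancer cell lines were treated by pin tool with a single drug, or with a fixed anchor-drug dose together with five library-drug doses (not always all listed) in √10 steps. After 5 days, a combined fix-and-stain solution (final 0.05% Triton X-100, 1% formaldehyde, 1 ug/ml Hoechst) was added. Nuclei counted on 4× images gave relative viability as treated counts over vehicle counts, reported as the median of duplicate plates.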

[2] = compound: CN1CCN(c2ccc3nc(-c4c(N)c5c(F)cccc5[nH]c4=O)[nH]c3c2)CC1 [Dovitinib] + CS(=O)(=O)N1CCN(Cc2cc3nc(-c4cccc5[nH]ncc45)nc(N4CCOCC4)c3s2)CC1 [Pictilisib] (partner 1 µM)
Outline: as §1

[3] = compound: CN1CCN(c2ccc3nc(-c4c(N)c5c(F)cccc5[nH]c4=O)[nH]c3c2)CC1 [Dovitinib] + Cc1nc(NC(=O)N2CCC[C@H]2C(N)=O)sc1-c1ccnc(C(C)(C)C(F)(F)F)c1 [Alpelisib] (partner 2 µM)
Outline: as §1

[4] = compound: CN1CCN(c2ccc3nc(-c4c(N)c5c(F)cccc5[nH]c4=O)[nH]c3c2)CC1 [Dovitinib] + Nc1ncn([C@H]2C[C@H](O)[C@@H](CO)O2)c(=O)n1 [Decitabine] (partner 2 µM)
Outline: as §1

| Cell Line | relative viability ([1]; first compound 0.02 µM) | relative viability ([1]; first compound 0.06325 µM) | relative viability ([1]; first compound 0.2 µM) | relative viability ([1]; first compound 0.6325 µM) | relative viability ([1]; first compound 2 µM) | relative viability ([2]; first compound 0.02 µM) | relative viability ([2]; first compound 0.06325 µM) | relative viability ([2]; first compound 0.2 µM) | relative viability ([2]; first compound 0.6325 µM) | relative viability ([2]; first compound 2 µM) | relative viability ([3]; first compound 0.02 µM) | relative viability ([3]; first compound 0.06325 µM) | relative viability ([3]; first compound 0.2 µM) | relative viability ([3]; first compound 0.6325 µM) | relative viability ([3]; first compound 2 µM) | relative viability ([4]; first compound 0.02 µM) | relative viability ([4]; first compound 0.06325 µM) | relative viability ([4]; first compound 0.2 µM) | relative viability ([4]; first compound 0.6325 µM) | relative viability ([4]; first compound 2 µM) |
| --- | --- | --- | --- | --- | --- | --- | --- | --- | --- | --- | --- | --- | --- | --- | --- | --- | --- | --- | --- | --- |
| ABC-1 | 0.848 | 0.865 | 0.842 | 1.02 | 0.618 | 0.697 | 0.664 | 0.826 | 0.872 | 0.78 | 0.994 | 0.947 | 0.967 | 0.564 | 0.823 | 1.08 | 0.991 | 1.03 | 0.891 | 1.14 |
| COR-L23 | 0.876 | 1.05 | 0.943 | 0.896 | 1.04 | 0.733 | 0.75 | 0.813 | 0.838 | 0.904 | 0.768 | 0.743 | 0.69 | 0.773 | 0.726 | 0.439 | 0.43 | 0.438 | 0.501 | 0.484 |
| NCI-H661 | 0.537 | 0.547 | 0.618 | 0.613 | 0.654 | 0.427 | 0.465 | 0.455 | 0.427 | 0.359 | 0.706 | 0.661 | 0.885 | 0.898 | 0.573 | 0.573 | 0.591 | 0.652 | 0.571 | 0.595 |
| ChaGo-K-1 | – | – | – | – | – | 0.653 | 0.654 | 0.829 | 0.883 | 0.972 | – | – | – | – | – | 0.528 | 0.517 | 0.498 | 0.514 | 0.487 |
| NCI-H1650 | – | – | – | – | – | 0.62 | 0.577 | 0.654 | 0.608 | 0.678 | – | – | – | – | – | 0.448 | 0.362 | 0.489 | 0.44 | 0.442 |
| EBC-1 | 0.855 | 0.861 | 0.85 | 0.884 | 0.912 | 0.422 | 0.35 | 0.336 | 0.342 | 0.453 | 0.951 | 0.781 | 0.925 | 0.73 | 0.708 | – | – | – | – | – |
| NCI-H1703 | 0.853 | 0.868 | 0.671 | 0.533 | 0.403 | 0.215 | 0.24 | 0.294 | 0.232 | 0.208 | 0.291 | 0.418 | 0.346 | 0.264 | 0.276 | – | – | – | – | – |
| CAL-12T | 0.839 | 0.894 | 0.756 | 0.784 | 0.82 | 0.664 | 0.3 | 0.295 | 0.528 | 0.722 | 1.16 | 1.06 | 1.18 | 1.37 | 1.15 | – | – | – | – | – |
| NCI-H1563 | 1.28 | 1.17 | 1.14 | 1.21 | 1.2 | 0.631 | 0.629 | 0.685 | 0.635 | 0.672 | 0.943 | 0.893 | 1.06 | 0.908 | 0.902 | – | – | – | – | – |
| NCI-H2170 | – | – | – | – | – | 0.268 | 0.337 | 0.318 | 0.265 | 0.322 | 0.672 | 0.807 | 0.889 | 0.77 | 0.83 | 0.466 | 0.496 | 0.529 | 0.458 | 0.458 |
